Series [1] relates to Cercospora brown spot of peanut. Description: In vitro fungicidal activity, PDA colony diameter. The format is cell-based. Particulars: 96 h, 50 mg/kg, inhibition of colony diameter, read-out: Fungicidal activity (%) Cercospora brown spot of peanut.
In another series the test system is Maize borers. Description: Test of insecticidal activity against maize borers (leaf immersion). Conditions: read-out: Mortalities (%) Maize borers.
The next series has as its system Rice sheath blight. As to the kind of experiment: In vitro fungicidal activity, PDA colony diameter. The format is cell-based. Particulars: 50 mg/kg, inhibition of colony diameter; read-out: Fungicidal activity (%) Rice sheath blight.
For series [2], the system named is mosquito larvae (Culer pipiens pallens). Description: Test of insecticidal activity against mosquito larvae (checked after 24 h). Conditions: 24 h, read-out: Mortalities (%) against mosquito larvae.
Method: Method of testing against mosquito larvae: the tested mosquito larvae are Culer pipiens pallens, a normal colony fed indoor. About 5 mg compound to be tested is weighed and loaded into a penicillin vial, 5 mL acetone (or an appropriate solvent) is added into the vial, and the vial is oscillated to dissolve the compound; thus, 1,000 ppm mother liquid is obtained. 1 mL mother liquid is weighed and added into a 100 mL beaker filled with 89 mL water, 10 mosquito larvae in the early stage of the 4th instar together with 10 mL feeding solution are poured into the beaker; thus, the concentration of the pesticide solution is 10 ppm (the pesticide solutions with other concentrations are attained by diluting the mother liquid by corresponding times). […] Water solution that contains 0.5 mL test solvent is used as a blank sample.
Another series deals with Cotton bollworms. Description: Test of insecticidal activity against cotton bollworms (pesticide mixed into feedstuff). Particulars: read-out: Mortalities (%) Cotton bollworms.
For the next series, the system named is Cucumber fusarium wilt. As to the kind of experiment: In vitro fungicidal activity, PDA colony diameter. It is filed as cell-based. Conditions: 96 h, 50 mg/kg, inhibition of colony diameter, read-out: Fungicidal activity (%) Cucumber fusarium wilt.
The next series concerns Rice bakanae disease. Description: In vitro fungicidal activity, PDA colony diameter. It is filed as cell-based. Conditions: read-out: Fungicidal activity (%) Rice bakanae disease.
The next series concerns Armyworms. Description: Test of insecticidal activity against armyworms (leaf immersion). Particulars: 600 mg/kg, 3-4 days.
The next series deals with Wheat head blight. As to the kind of experiment: whole plant or invertebrate. The format is cell-based. Particulars: Triticum aestivum, read-out: Fungicidal activity (%) Wheat head blight.
A further series relates to Watermelon anthracnose. Description: In vitro fungicidal activity, PDA colony diameter. The format is cell-based. Particulars: 50 mg/kg, inhibition of colony diameter; read-out: Fungicidal activity (%) Watermelon anthracnose.
The next series relates to Potato late blight. As to the kind of experiment: microbe, parasite or virus in culture. It is filed as cell-based. Particulars: Phytophthora infestans, 96 h, read-out: Fungicidal activity (%) Potato late blight.
Series [3] has as its system a variety of pathogenic fungi. Description: In vitro fungicidal activity, summary over the tested fungi. It is filed as cell-based. Particulars: 50 mg/kg. As to the method:
Here, the test is described in an example of Alternaria solani; it can be replaced by other fungi.
In vitro testing method: Alternaria solani is inoculated to a PDA culture medium and cultured for 7 days, a fungus dish with a diameter of […] is prepared on the periphery of the colony with a punch and inoculated to a PDA culture medium that contains pesticide at a concentration of 50 mg/kg and a PDA culture medium that doesn't contain the pesticide, and are cultured for 4 days respectively; then, the colony diameters are measured, and the inhibition percentages of the pesticides are calculated by comparing with the control sample.

The subject of a further series is Tomato early blight. As to the kind of experiment: In vitro fungicidal activity, PDA colony diameter. The format is cell-based, Alternaria solani. Conditions: 50 mg/kg, inhibition of colony diameter; read-out: Fungicidal activity (%) Tomato early blight.
For the next series, the system named is Apple ring rot. Description: In vitro fungicidal activity, PDA colony diameter. The format is cell-based. Particulars: inhibition of colony diameter. An outline of the steps: (§1)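 Mycelial plugs cut from the edge of 7-day PDA colonies placed on PDA containing 50 mg/kg compound or on compound-free PDA, grown 4 days. Colony diameters measured; percent inhibition calculated against untreated control.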

Series [4] relates to Capsicum phytophthora blight. Description: In vitro fungicidal activity, PDA colony diameter. The format is cell-based. Conditions: 96 h. In outline: as §1
The test system of series [5] is bean aphides (Aphis laburni Kaltenbach). Description: Test of insecticidal activity against aphides (leaf immersion, checked after 96 h). Particulars: 96 h; for mortality at 10 mg/kg / mortality at 100 mg/kg / mortality at 600 mg/kg / mortality at 2.5 mg/kg / mortality at 5 mg/kg: Aphis, read-out: Mortalities (%) against aphides.
Series [6] relates to Corn southern leaf blight. As to the kind of experiment: In vitro fungicidal activity, PDA colony diameter. It is filed as cell-based. Conditions: 50 mg/kg, inhibition of colony diameter; read-out: Fungicidal activity (%) Corn southern leaf blight.
The test system of the next series is Wheat sheath blight. Description: In vitro fungicidal activity, PDA colony diameter. The format is cell-based. Conditions: 50 mg/kg, inhibition of colony diameter; read-out: Fungicidal activity (%) Wheat sheath blight.
Another series relates to Sclerotinia rot of colza. As to the kind of experiment: In vitro fungicidal activity, PDA colony diameter. It is filed as cell-based. Particulars: 96 h, 50 mg/kg, inhibition of colony diameter, read-out: Fungicidal activity (%) Sclerotinia rot of colza.
[7] abbreviates: 50 mg/kg, inhibition of colony diameter.

The source of these data is patent US11203577B2, “Sulfonyl-structure-containing triazinone derivatives, their preparation methods and their uses in insect killing and/or bacterium killing” (Nankai University, priority 2017, dated 2021).

Read-outs that look alike come from different tables or passages of the source.

Method for Cotton bollworms: Method of testing against cotton bollworms: the pesticide is mixed into the feedstuff, i.e., 3 mL prepared solution is added into about 27 g freshly prepared feedstuff; thus, required concentration is obtained by diluting by 10 times.

As for `CCCCS(=O)(=O)NN1CC(C)=NNC1=O` [Ia-4, N-(6-methyl-3-oxo-2,3-dihydro-1,2,4-triazin-4(5H)-yl)-n-butylsulfonamide], the inhibition of growth at 50 mg/kg in series [1] stood at 15.8%; in the series with Cucumber fusarium wilt, 0%; with Potato late blight, 40.7%; in [4], 46.9%; in the series on Sclerotinia rot of colza, 48.3%. Moreover, the mortality at 600 mg/kg in the series on Maize borers was 5%; in the series on Cotton bollworms, 0%; in series [5] it was 85%. Also, the inhibition at 50 mg/kg in the series on Rice sheath blight was 34.9%; in the series on Rice bakanae disease (setting [7]) it was 38.9%; in the series on Wheat head blight it was 6.7%; with Watermelon anthracnose, 25%; in the series with Tomato early blight, 14.3%; with Apple ring rot, 31%. Moreover, the inhibition at 50 mg/kg in series [6] came to 33.3%; in the series with Wheat sheath blight it was 70.5%. For the same compound, the mortality at 10 mg/kg in series [2] and in [5] was 20% throughout. Moreover, the “Mortalities (%) Armyworms” value in the series with Armyworms is 5%. For the same compound, in [3], the “fungicidal activity against a variety of pathogenic fungi” value (shortened to “fungicidal activity against a variety”) is reported as “outstanding fungicidal activity”. Also, the mortality at 100 mg/kg in [5] came to 70%.

Regarding `CC1=NNC(=O)N(NS(=O)(=O)c2ccc(C)cc2)C1` [Ia-12, 4-methyl-N-(6-methyl-3-oxo-2,3-dihydro-1,2,4-triazin-4(5H)-yl)-benzenesulfonamide], the inhibition of growth at 50 mg/kg is 42.1% in series [1]; 25% in the series with Cucumber fusarium wilt; 29.6% in the series on Potato late blight; 40.8% in [4]; 70% with Sclerotinia rot of colza. For the same compound, the results for the mortality at 600 mg/kg (with Maize borers; with Cotton bollworms; in series [5]) were 10%, 30% and 100%, respectively. Moreover, the inhibition at 50 mg/kg in the series with Rice sheath blight was 27%; in the series with Rice bakanae disease (setting [7]) it was 27.8%; in the series with Wheat head blight, 13.3%; in the series with Watermelon anthracnose, 33.3%; in the series with Tomato early blight, 33.3%; in the series with Apple ring rot it was 41.4%. The inhibition at 50 mg/kg in [6] amounted to 33.3%; in the series with Wheat sheath blight it was 72.7%. Moreover, in series [2], the mortality at 2 mg/kg worked out at 10%. The mortality at 5 mg/kg in [2] and in series [5] was 100% throughout. Further, the mortality at 10 mg/kg in series [2] and in series [5] was 100% each time. Besides, the “Mortalities (%) Armyworms” value in the series with Armyworms is given as 15%. For the same compound, the “fungicidal activity against a variety” value in series [3] is “outstanding fungicidal activity”. Moreover, the mortality at 2.5 mg/kg in series [5] was found to be 30%. Moreover, the mortality at 100 mg/kg in series [5] came to 100%.

Regarding `CC1=NNC(=O)N(N(S(=O)(=O)c2ccccc2)S(=O)(=O)c2ccccc2)C1` [Ib-5, N-(6-methyl-3-oxo-2,3-dihydro-1,2,4-triazin-4(5H)-yl)-N-(benzenesulfonyl)-benzenesulfonamide], the inhibition of growth at 50 mg/kg in [1] was 36.8%; in the series with Cucumber fusarium wilt it was 15%; in the series on Potato late blight it was 22.2%; in series [4], 42.9%; in the series with Sclerotinia rot of colza, 40%. Also, the mortality at 600 mg/kg came out at 25% in the series on Maize borers, 20% in the series with Cotton bollworms and 100% in series [5]. Moreover, the inhibition at 50 mg/kg in the series on Rice sheath blight amounted to 27%; in the series on Rice bakanae disease, 22.2%; in the series on Wheat head blight, 10%; with Watermelon anthracnose, 20.8%; with Tomato early blight it was 38.1%; with Apple ring rot, 44.8%. Also, the inhibition at 50 mg/kg is 25% in [6] and 68.2% in the series with Wheat sheath blight. In addition, the mortality at 10 mg/kg came to 60% in series [2] and 50% in series [5]. The “Mortalities (%) Armyworms” value in the series on Armyworms is reported as 40%. Besides, the “fungicidal activity against a variety” value in [3] was “outstanding fungicidal activity”. Also, the mortality at 5 mg/kg in [5] amounted to 10%. Further, the mortality at 100 mg/kg in series [5] is 90%.

Take `CC1=NNC(=O)N(/N=C/c2cccnc2)C1` [Pymetrozine, reference compound]: the inhibition of growth at 50 mg/kg came out at 15.8% in [1]; 5% with Cucumber fusarium wilt; 22.2% in the series on Potato late blight; 36.7% in series [4]; 31.7% with Sclerotinia rot of colza. The mortality at 600 mg/kg in the series on Maize borers amounted to 35%; in the series on Cotton bollworms, 20%; in series [5] it was 100%. Also, the inhibition at 50 mg/kg in the series on Rice sheath blight is 19%; in the series on Rice bakanae disease (setting [7]) it was 33.3%; in the series on Wheat head blight, 13.3%; with Watermelon anthracnose, 16.7%; in the series with Tomato early blight, 23.8%; with Apple ring rot, 27.6%. The inhibition at 50 mg/kg in series [6] was 16.7%; in the series on Wheat sheath blight it was 63.6%. Moreover, the mortality at 5 mg/kg was 40% in series [2] and 30% in series [5]. The mortality at 10 mg/kg in [2] came out at 100%; in series [5], 90%. Besides, the “Mortalities (%) Armyworms” value with Armyworms worked out at 50%. For the same compound, the “Mortalities (%) against aphides” value in series [5] (2.5 mg/kg) is “no insecticidal activity”. In addition, the mortality at 2.5 mg/kg in [5] was determined as 0%. For the same compound, the mortality at 100 mg/kg in [5] was determined as 100%.
